Measured values taken from US20090239748A1, “Fungicidal Mixtures Based on 2,5-Disubstituted N-Biphenylpyrazolcarboxamides” (BASF Aktiengesellschaft, priority 2005, published 2009).

How the values were obtained:
[1] = test system: Pyrenophora [syn. Drechslera] teres; assay: Activity against net blotch of barley caused by Pyrenophora teres, 1 day protective application; format: in vivo; settings: 0.25 mg/l, read after 6 days
Experimental: The active compounds, separately or jointly, were prepared as a stock solution comprising 25 mg of active compound which was made up to 10 ml using a mixture of acetone and/or dimethyl sulfoxide and the emulsifier Uniperol® EL (wetting agent having an emulsifying and dispersing action based on ethoxylated alkylphenols) in a ratio by volume of solvent/emulsifier of 99:1. The mixture was then made up to 100 ml with water. This stock solution was diluted with the solvent/emulsifier/water mixture described to give the concentration of active compound stated below. […]
(§1) The visually determined percentages of infected leaf areas were converted into efficacies in % of the untreated control.
(§2) The efficacy (E) is calculated as follows using Abbot's formula: […]
(§3) The expected efficacies of active compound mixtures were determined using Colby's formula [R. S. Colby, “Calculating synergistic and antagonistic responses of herbicide combinations”, Weeds 15, 20-22 (1967)] and compared with the observed efficacies. […]
Leaves of potted barley seedlings were sprayed to runoff point with an aqueous suspension having the active compound concentration stated below. […] After 6 days, the extent of the development of the disease was determined visually in % infection of the entire leaf area.

Puccinia recondita = assay: Protective activity against Puccinia recondita on wheat (brown rust of wheat); format: in vivo
Experimental: (§4) The active compounds, separately or jointly, were prepared as a stock solution comprising 25 mg of active compound which was made up to 10 ml using a mixture of acetone and/or dimethyl sulfoxide and the emulsifier Uniperol® EL (wetting agent having an emulsifying and dispersing action based on ethoxylated alkylphenols) in a ratio by volume of solvent/emulsifier of 99:1. The mixture was then made up to 100 ml with water. This stock solution was diluted with the solvent/emulsifier/water mixture described to give the concentration of active compound stated below.
(§5) Alternatively, the active compounds epoxiconazole and pyraclostrobin were used as a commercial formulation and diluted with water to the stated active compound concentrations.
as §1, §2
α corresponds to the fungicidal infection of the treated plants in % and β corresponds to the fungicidal infection of the untreated (control) plants in %
An efficacy of 0 means that the infection level of the treated plants corresponds to that of the untreated control plants; an efficacy of 100 means that the treated plants were not infected.
(§6) The expected efficacies of active compound mixtures were determined using Colby's formula [R. S. Colby, “Calculating synergistic and antagonistic responses of herbicide combinations”, Weeds 15, 20-22 (1967)] and compared with the observed efficacies.
(§7) E=x+y−x·y/100 • E expected efficacy, expressed in % of the untreated control, when using the mixture of the active compounds A and B at the concentrations a and b; • x efficacy, expressed in % of the untreated control, when using the active compound A at the concentration a; • y efficacy, expressed in % of the untreated control, when using the active compound B at the concentration b.
Leaves of potted wheat seedlings of the cultivar “Kanzler” were sprayed to runoff point with an aqueous suspension having the active compound concentration stated below. The next day, the treated plants were inoculated with a spore suspension of brown rust of wheat (Puccinia recondita). The plants were then placed in a chamber with high atmospheric humidity (90 to 95%) at 20 to 22° C. for 24 hours. During this time, the spores germinated and the germ tubes penetrated into the leaf tissue. The next day, the test plants were returned to the greenhouse and cultivated at temperatures between 20 and 22° C. and at 65 to 70% relative atmospheric humidity for a further 7 days. The extent of the rust fungus development on the leaves was then determined visually.

Septoria tritici = assay: Activity against the Septoria leaf spot pathogen Septoria tritici in the microtiter test; format: cell-based; settings: microtiter plate, 405 nm, day 7
Experimental: as §6, §7
For this test, the active compounds were formulated separately as a stock solution having a concentration of 10 000 ppm in dimethyl sulfoxide.
The stock solution was mixed according to the ratio, pipetted into a microtiter plate (MTP) and diluted with an aqueous malt-based fungus nutrient medium to the stated active compound concentration. An aqueous spore suspension of Septoria tritici was then added. […] Using an absorbtion photometer, the MTPs were measured at 405 nm on day 7 after the inoculation.
The measured parameters were compared to the growth of the active compound-free control variant (100%) and the fungus- and active compound-free blank value to determine the relative growth in % of the pathogens in the individual active compounds.

Phakopsora pachyrhizi = assay: Curative activity against soybean rust caused by Phakopsora pachyrhizi; format: in vivo; settings: 0.25 mg/l, curative (sprayed 2 days after inoculation), 14 days
Experimental: as §4, §5, §1, §2, §3
Leaves of potted soybean seedlings of the cultivar “Oxford” were inoculated with a spore suspension of soybean rust (Phakopsora pachyrhizi). […] The extent of the rust fungus development on the leaves was then determined.

Botrytis cinerea = assay: Activity against gray mold on bell pepper leaves caused by Botrytis cinerea, 1 day protective application; format: in vivo; settings: sprayed 1 day before inoculation, read after 5 days
Experimental: as §4, §1, §2, §3
Bell pepper seedlings of the cultivar “Neusiedler Ideal Elite” were, after 2-3 leaves were well developed, sprayed to runoff point with an aqueous suspension having the active compound concentration stated below. […] After 5 days, the extent of the fungal infection on the leaves could be determined visually in %.

Structure (SMILES): Cn1cc(C(=O)Nc2ccccc2-c2cc(F)ccc2F)c(C(F)F)n1 [No. I.2, N-(2′,5′-difluorobiphenyl-2-yl)-1-methyl-3-difluoromethyl-1H-pyrazole-4-carboxamide]
- Observed effect (% infection) [1]: 0%
- Observed effect (% infection) (Puccinia recondita; 1 mg/l): 52%
- melting point: 139 to 141 °C

Structure (SMILES): COc1ccc(C(=CC(=O)N2CCOCC2)c2ccc(Cl)cc2)cc1OC [dimethomorph, 3-(4-chlorophenyl)-3-(3,4-dimethoxyphenyl)-1-morpholin-4-yl-propenone, reference compound]
- Observed effect (% infection) (Septoria tritici; 4 mg/l): 20%

Structure (SMILES): COc1cc(C)c(C(=O)c2c(OC)ccc(Br)c2C)c(OC)c1OC [metrafenone, 3′-bromo-2,3,4,6′-tetramethoxy-2′,6-dimethylbenzophenone, reference compound]
- Observed effect (% infection) (Puccinia recondita; 4 mg/l): 0%

Structure (SMILES): Fc1ccc([C@]2(Cn3cncn3)O[C@H]2c2ccccc2Cl)cc1 (racemic) [epoxiconazole, (2RS,3SR)-1-[3-(2-chlorophenyl)-2,3-epoxy-2-(4-fluorophenyl)propyl]-1H-1,2,4-triazole, reference compound]
- Observed effect (% infection) (Puccinia recondita; 0.25 mg/l): 5%

Structure (SMILES): Cn1cc(C(=O)Nc2ccccc2-c2cc(Cl)ccc2Cl)c(C(F)(F)F)n1 [No. I.5, N-(2′,5′-dichlorobiphenyl-2-yl)-1-methyl-3-trifluoromethyl-1H-pyrazole-4-carboxamide]
- melting point: 131 to 135 °C

Structure (SMILES): COC(=O)N(OC)c1ccccc1COc1ccn(-c2ccc(Cl)cc2)n1 [pyraclostrobin, methyl N-{2-[1-(4-chlorophenyl)-1H-pyrazol-3-yloxymethyl]phenyl}(N-methoxy)carbamate, reference compound]
- Observed effect (% infection) [1]: 33%
- Observed effect (% infection) (Phakopsora pachyrhizi): 29%

Structure (SMILES): Cn1cc(C(=O)Nc2ccccc2-c2cc(Cl)ccc2Cl)c(C(F)F)n1 [No. I.4, N-(2′,5′-dichlorobiphenyl-2-yl)-1-methyl-3-difluoromethyl-1H-pyrazole-4-carboxamide]
- melting point: 130 to 132 °C

Structure (SMILES): CC1CCN(c2c(-c3c(F)cc(F)cc3F)c(Cl)nc3ncnn23)CC1 [5-chloro-7-(4-methylpiperidin-1-yl)-6-(2,4,6-trifluorophenyl)-[1,2,4]triazolo[1,5-a]-pyrimidine, reference compound]
- Observed effect (% infection) (Botrytis cinerea; 4 mg/l): 40%

Structure (SMILES): Cn1cc(C(=O)Nc2ccccc2-c2cc(F)ccc2F)c(C(F)(F)F)n1 [No. I.1, N-(ortho-(2,5-difluorophenyl)phenyl)-1-methyl-3-trifluoromethylpyrazole-4-carboxamide]
- Observed effect (% infection) (Septoria tritici; 1 mg/l): 0%
- Observed effect (% infection) (Phakopsora pachyrhizi): 29%
- Observed effect (% infection) (Botrytis cinerea; 1 mg/l): 0%
- Observed effect (% infection) (Puccinia recondita; 1 mg/l): 5%
